# Reference: US20210002371A1, “COMBINATION OF AN ANTI-PD-L1 ANTIBODY AND IDO1 INHIBITOR FOR THE TREATMENT OF CANCER” (Merck Patent GmbH, priority 2017, published 2021)
# Assays:
# [1] = test system: CT26-KSA colon carcinoma cells; experiment: Anti-tumor efficacy in CT26-KSA tumor-bearing mice (s.c. colon carcinoma model); assay type: in vivo, BALB/c female mice; settings: M4112 200 mg/kg p.o. 2x/day for 3 weeks, avelumab 400 μg i.v. Days 0, 3, 6
# Procedure: (§1) Tumor growth data are presented in graphical form as the mean and standard error of the mean (SEM) of tumor volumes every 3 or 4 days. Two-way repeated measures analysis of variance (RM ANOVA) with Tukey's post-test was performed to assess differences in tumor volumes between treatment groups. Treatment/Control (T/C) values were calculated as the mean tumor volume of the treatment group divided by the mean tumor volume of the control group on the last day of observation and are expressed as percentages. In all cases, p<0.05 was considered statistically significant. Kaplan Meier survival curves were analyzed by Log-Rank (Mantel-Cox) test. A Bonferroni-corrected significance threshold of p<0.0125 was used to account for multiple comparisons.
# The combination treatment of avelumab and M4112 in a CT26-KSA murine model was undertaken to evaluate the anti-tumor activity in BALB/c mice. […] The tumor volume, mice survival and mouse body weight were measured. […]
# CT26-KSA cells were cultured in RPMI-1640 medium containing 10% FBS, 2 mM L-glutamine, 0.1 mM non-essential amino acids (NEAA), 1 mM Na Pyruvate, 1% MEM vitamin solution and 1% G418 antibiotic (1 mg/mL). […] Cells were harvested by trypsinization with TrypLE Express and viable cell counts were determined using a Countess or hematocrit chamber cell counter and trypan blue exclusion staining. […]
# [2] = test system: MC38 colon carcinoma cells; experiment: Anti-tumor efficacy in MC38 tumor-bearing mice (s.c. colon carcinoma model); assay type: in vivo, C57BL/6 female mice; settings: Day 24; M4112 200 mg/kg p.o. 2x/day for 4 weeks; avelumab 400 μg i.v. Days 0, 2, 4; control = M4112 vehicle + isotype control
# Procedure: as §1
# The combination treatment of avelumab and M4112 in the MC38 murine model was undertaken to evaluate the anti-tumor activity in C57BL/6 mice. […] The tumor volume, mice survival and mouse body weight were measured.
# MC38 cells were cultured in DMEM containing 4.5 g/L D-glucose, 2 mM glutamine, and 110 mg/L sodium pyruvate and supplemented with 10% FBS, 0.1 mM MEM NEAA, and penicillin/streptomycin. […] Cells were harvested by trypsinization with TrypLE Express and viable cell counts were determined using a Countess or hematocrit chamber cell counter and trypan blue exclusion staining. […]
# [3] = test system: IDO1 expressing mDCs co-cultured with PBMCs; experiment: One-way Mixed Lymphocyte Reaction (MLR) assay, IFNγ production by ELISA; assay type: cell-based, human; settings: M4112 5 μM, avelumab 0.61-10000 ng/mL
# Procedure: High levels of IDO1 in mDCs correlate with suppressed avelumab activity (IFNγ production) in the one-way MLR assay, which is reversed in an avelumab dose-dependent manner when M4112 is used in combination. Prior to the one-way MLR assay, imDCs from donor 17988 were treated with 1 μg/mL LPS for two days to obtain mDCs. Cells were stained with either an isotype control Phycoerythrin (PE) antibody or an anti-IDO1-PE antibody. (A-B) Stained cells were analyzed via FACS. Purple (solid curve) represents isotype control stained cells and green (transparent curve) represents IDO1-PE stained cells. […] On (C) Day 4 (Experiment A) or (D) Day 3 (Experiment B) of the MLR assay, IFNγ levels ([…]) were measured in the co-culture supernatant via IFNγ ELISA. […]
# This example describes the in vitro characterization of M4112, alone and in combination with the anti-tumor compound avelumab, using one-way Mixed Lymphocyte Reaction (MLR) assays. […] Using this functional assay, the immune IDO1 expressing cells (mDCs) were cultured with PBMCs in the presence or absence of the IDO1/TDO2 inhibitor, M4112, and the immune response was evaluated by looking at IFNγ production. […]
# A one-way MLR assay was performed with a 2.3:1 ratio of PBMC to mDC (stimulated with LPS) under two different conditions. […] Both experiments measured the change in IFNγ concentration using the optical density of a standard curve from an ELISA.
smiles,measurement,setting,value
"NS(=O)(=O)[C@H]1CC[C@](F)(CC[C@H]2c3ccccc3-c3cncn32)CC1 [Compound M4112, c-4-fluoro-t-4-[(S)-2-(5H-imidazo[5,1-a]isoindol-5-yl)-ethyl]-cyclohexane-r-1-sulfonic acid amide]",median survival time,[1]; CT26-KSA tumor-bearing mice,30.5 days
same,T/C (mean tumor volume of treatment group / mean tumor volume of control group),"[1]; Day 21, control = M4112 vehicle + isotype control",78%
same,T/C (mean tumor volume of treatment group / mean tumor volume of control group),[2],72%
same,avelumab activity (IFNγ production) in MLR,"[3]; Experiment A: IDO1-high mDCs, Day 4",the activity of avelumab was restored to normal levels
same,avelumab activity (IFNγ production) in MLR,"[3]; Experiment B: IDO1-low mDCs, Day 3",no change in avelumab activity
